Results on nine compounds are retold here after patent publication US12371454B2, “Cyclic peptide compound having Kras inhibitory action” (priority 2019, dated 2025).

Starred links: 1 amine or outer side, 2 acyl side, 3 side chain; linkers in the order of their positions; H or OH if unused. Positions of bridges follow the written chain, without caps; N, C: chain ends. Non-standard residues stand in square brackets, D forms with d. Residues, ends and D or L forms follow the SMILES beside them. *: point of attachment. hPhe(3,5-F2-4-CF3) = N[C@@H](CCc1cc(F)c(C(F)(F)F)c(F)c1)C(=O)O; hPhe(3-Cl-4-CF3) = N[C@@H](CCc1ccc(C(F)(F)F)c(Cl)c1)C(=O)O; NMePhe(4-CF3) = CN[C@@H](Cc1ccc(C(F)(F)F)cc1)C(=O)O; X67 = O=C([C@H](CCc1cc(F)c(F)cc1F)N[*:1])[*:2]; NMePhe(4-Br) = CN[C@@H](Cc1ccc(Br)cc1)C(=O)O; NMePhe(4-Cl) = CN[C@@H](Cc1ccc(Cl)cc1)C(=O)O; NMePhe(4-Me) = CN[C@@H](Cc1ccc(C)cc1)C(=O)O; NMePhe(2-Cl) = CN[C@@H](Cc1ccccc1Cl)C(=O)O; NMePhe(4-F) = CN[C@@H](Cc1ccc(F)cc1)C(=O)O; NMedβ3hAla = C[C@H](CC(=O)[*:2])N(C)[*:1]; NMeGly(cPent) = CN[C@H](C(=O)O)C1CCCC1; Phe(3-I) = N[C@@H](Cc1cccc(I)c1)C(=O)O; NMeY = CN[C@@H](Cc1ccc(O)cc1)C(=O)O; NMeCha = CN[C@@H](CC1CCCCC1)C(=O)O; NMeF = CN[C@@H](Cc1ccccc1)C(=O)O; NMeI = CC[C@H](C)[C@H](NC)C(=O)O; d(β3hL) = CC(C)C[C@@H](N)CC(=O)O; NMeD = CN[C@@H](CC(=O)O)C(=O)O; NMeL = CN[C@@H](CC(C)C)C(=O)O; NMeNle = CCCC[C@H](NC)C(=O)O; d(β3hA) = C[C@@H](N)CC(=O)O; NMeA = CN[C@@H](C)C(=O)O; NMeAib = CNC(C)(C)C(=O)O; Piperidide = C1CCN(*)CC1; Ac5c = NC1(C(=O)O)CCCC1; Aze = O=C(O)[C@@H]1CCN1; Sar = CNCC(=O)O

The target in this assay is T1, Kras and SOS1 (biotin-tagged human Kras loaded with GDP, His-tagged human SOS1) (Homo sapiens, UniProt P01116, G12D).
T1 construct: made in house; host or cells: E. coli (stated for Kras only)
T1 sequence (P01116 1-188 isoform P01116-2 G12D): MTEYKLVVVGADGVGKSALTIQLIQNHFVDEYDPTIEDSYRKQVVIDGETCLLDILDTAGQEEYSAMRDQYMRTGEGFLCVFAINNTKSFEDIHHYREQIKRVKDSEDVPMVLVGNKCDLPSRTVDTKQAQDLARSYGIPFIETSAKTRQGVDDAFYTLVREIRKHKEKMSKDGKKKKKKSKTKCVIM
Briefly: Protein-protein interaction inhibition between Kras and SOS1 (KrasGl2D-SOS PPI) using AlphaScreen. In kind it is binding. The settings on record: AlphaScreen; biotin-tagged human Kras loaded with GDP, His-tagged human SOS1; read-out: KRAS G12D-SOS PPI IC50. The method in brief: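 Kras was produced in E. coli, purified, then loaded with GDP. It was paired via streptavidin acceptor beads with His-SOS1 held on nickel donor beads, and proximity signal at 520-620 nm was read after 680 nm illumination.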
(Bead proximity is the source of the signal in Alpha formats.)
Turning to `CC[C@H](C)[C@@H]1NC(=O)[C@H](CC(C)C)N(C)C(=O)C[C@@H](C(=O)N(C)C)N(C)C(=O)[C@H]([C@@H](C)CC)N(C)C(=O)C2(CCCC2)NC(=O)[C@H](Cc2ccc(F)cc2)N(C)C(=O)[C@H](CCc2cc(F)c(C(F)(F)F)c(F)c2)NC(=O)CN(C)C(=O)[C@H](Cc2ccc(C(F)(F)F)cc2)N(C)C(=O)[C@@H]2CCN2C(=O)[C@H](C)N(C)C1=O` [Compound 1882] ([NMeL]I[NMeA][Aze][NMePhe(4-CF3)][Sar][hPhe(3,5-F2-4-CF3)][NMePhe(4-F)][Ac5c][NMeI][NMeD]-NMe2; lactam N-11), the IC50 – broadly, the concentration that inhibits the measured activity by half – turned out to be 0.0097 µM.

Consider `CC[C@H](C)[C@@H]1NC(=O)[C@H](C)N(C)C(=O)C[C@@H](C(=O)N(C)C)N(C)C(=O)[C@H]([C@@H](C)CC)N(C)C(=O)C2(CCCC2)NC(=O)[C@H](Cc2ccc(Br)cc2)N(C)C(=O)[C@H](CCc2ccc(C(F)(F)F)c(Cl)c2)NC(=O)CN(C)C(=O)[C@H](Cc2ccc(C)cc2)N(C)C(=O)[C@@H]2CCN2C(=O)[C@H](C)N(C)C1=O` [Compound 1893] ([NMeA]I[NMeA][Aze][NMePhe(4-Me)][Sar][hPhe(3-Cl-4-CF3)][NMePhe(4-Br)][Ac5c][NMeI][NMeD]-NMe2; lactam N-11), for which the half-inhibitory concentration (IC50) stood at 0.014 µM.

In the case of `CC[C@H](C)[C@@H]1NC(=O)[C@H](C)N(C)C(=O)C[C@@H](C(=O)N2CCCCC2)NC(=O)[C@H](CC(C)C)N(C)C(=O)[C@H](Cc2ccccc2)N(C)C(=O)[C@H](CC(C)C)NC(=O)[C@H](Cc2cccc(I)c2)NC(=O)CN(C)C(=O)[C@H](Cc2ccc(Cl)cc2)N(C)C(=O)CN(C)C(=O)CN(C)C1=O` [Compound 637] ([NMeA]I[Sar][Sar][NMePhe(4-Cl)][Sar][Phe(3-I)]L[NMeF][NMeL]D-Piperidide; lactam N-11), the IC50 stood at 0.026 µM.

`CC[C@H](C)[C@@H]1NC(=O)[C@H](CC(C)C)N(C)C(=O)C[C@@H](C(=O)N(C)C)N(C)C(=O)[C@H](C2CCCC2)N(C)C(=O)C2(CCCC2)NC(=O)[C@H](Cc2ccccc2Cl)N(C)C(=O)[C@H](CCc2ccc(C(F)(F)F)c(Cl)c2)NC(=O)CN(C)C(=O)[C@H](CC2CCCCC2)N(C)C(=O)[C@@H]2CCN2C(=O)[C@H](C)N(C)C1=O` [Compound 1009] ([NMeL]I[NMeA][Aze][NMeCha][Sar][hPhe(3-Cl-4-CF3)][NMePhe(2-Cl)][Ac5c][NMeGly(cPent)][NMeD]-NMe2; lactam N-11): the IC50 is 0.043 µM. The same measure for `CCCC[C@H]1C(=O)N(C)[C@H](C(=O)N2CCCCC2)CC(=O)N(C)[C@@H](CC(C)C)C(=O)N[C@@H]([C@@H](C)CC)C(=O)N(C)CC(=O)N(C)CC(=O)N(C)[C@@H](CC2CCCCC2)C(=O)N(C)CC(=O)N[C@@H](CCc2ccc(C(F)(F)F)c(Cl)c2)C(=O)N2CCC[C@H]2C(=O)NC2(CCCC2)C(=O)N1C` [Compound 1815] ([NMeL]I[Sar][Sar][NMeCha][Sar][hPhe(3-Cl-4-CF3)]P[Ac5c][NMeNle][NMeD]-Piperidide; lactam N-11): 0.0025 µM. The same measure for `CC[C@H](C)[C@@H]1NC(=O)[C@H](CC(C)C)N(C)C(=O)C[C@@H](CC(C)C)NC(=O)[C@H]([C@@H](C)CC)N(C)C(=O)C2(CCCC2)NC(=O)[C@@H]2CCCN2C(=O)[C@H](CCc2cc(F)c(C(F)(F)F)c(F)c2)NC(=O)CN(C)C(=O)[C@H](Cc2ccc(C(F)(F)F)cc2)N(C)C(=O)[C@@H]2CCN2C(=O)[C@H](C)N(C)C1=O` [Compound 1918] (cyclo([Ac5c][NMeI][d(β3hL)][NMeL]I[NMeA][Aze][NMePhe(4-CF3)][Sar][hPhe(3,5-F2-4-CF3)]P)): 0.28 µM; for `CC[C@H](C)[C@@H]1NC(=O)[C@H](C)N(C)C(=O)C[C@@H](C)NC(=O)[C@H](CC(C)C)N(C)C(=O)[C@H](Cc2ccccc2)N(C)C(=O)[C@H](CC(C)C)NC(=O)[C@H](CCc2cc(F)c(F)cc2F)NC(=O)CN(C)C(=O)[C@H](Cc2ccc(Cl)cc2)N(C)C(=O)CN(C)C(=O)CN(C)C1=O` [Compound 2087] (cyclo(I[Sar][Sar][NMePhe(4-Cl)][Sar][X67]L[NMeF][NMeL][d(β3hA)][NMeA])): 0.13 µM; for `CC[C@H](C)[C@@H]1NC(=O)[C@H](C)N(C)C(=O)C[C@@H](C)N(C)C(=O)[C@H](CC(C)C)N(C)C(=O)C(C)(C)N(C)C(=O)[C@@H]2CCCN2C(=O)[C@H](CCc2ccc(C(F)(F)F)c(Cl)c2)NC(=O)CN(C)C(=O)[C@H](CC2CCCCC2)N(C)C(=O)[C@@H]2CCN2C(=O)[C@H](C)N(C)C1=O` [Compound 2160] (cyclo([Aze][NMeCha][Sar][hPhe(3-Cl-4-CF3)]P[NMeAib][NMeL][NMedβ3hAla][NMeA]I[NMeA])): 0.0038 µM. Turning to `CC[C@H](C)[C@@H]1NC(=O)[C@H](CC(C)C)N(C)C(=O)C[C@@H](C(=O)N(C)C)N(C)C(=O)[C@H]([C@@H](C)CC)N(C)C(=O)C2(CCCC2)NC(=O)[C@H](Cc2ccc(OC)cc2)N(C)C(=O)[C@H](CCc2ccc(C(F)(F)F)c(Cl)c2)NC(=O)CN(C)C(=O)[C@H](Cc2ccc(C)cc2)N(C)C(=O)[C@@H]2CCN2C(=O)[C@H](C)N(C)C1=O` [Compound 1935] ([NMeL]I[NMeA][Aze][NMePhe(4-Me)][Sar][hPhe(3-Cl-4-CF3)][NMeY](Me)[Ac5c][NMeI][NMeD]-NMe2; lactam N-11), the IC50 turned out to be 0.011 µM.
